Data from patent US11345666B2, “Phenyl and pyridinyl substituted imidazoles as modulators of RORγT” (Janssen Pharmaceutica NV, priority 2018, dated 2022).

Experiments:
[1] = molecular target: full-length human RORγt (Homo sapiens (Human), UniProt P51449); assay: RORγt (full-length human) reporter assay, conditions A or B; assay type: cell-based; conditions: for IC50: HEK293T cells, read-out: RORγt (FL) Reporter Assay A or B, IC50; for inhibition at 6 µM: read-out: RORγt (FL) Reporter Assay A or B, % inhibition @ 6 μM, 6 μM compound concentration; for inhibition at 3 µM: 3 μM compound concentration (*); for inhibition at 3 µM / inhibition at 2 µM: read-out: RORγt (FL) Reporter Assay A or B, % inhibition; for inhibition at 2 µM: 2 μM compound concentration (**)
Outline: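 HEK293T cells transiently co-transfected (PEI) with GAL4-DBD–RORγt, GAL4-firefly luciferase and CMV-Renilla reporters; condition A 35,000 cells/well, 170.5 ng DNA/well; condition B 8750 cells/well, 42.6 ng DNA/well.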

[2] = molecular target: human RORγt ligand binding domain (RORγt LBD) (Homo sapiens (Human), UniProt P51449); assay: RORγt ThermoFluor assay
Outline: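 Thermal shift of His-tagged human RORγt LBD (0.065 mg/mL) with 60 μM 1,8-ANS in 100 mM Hepes pH 7.0, 10 mM NaCl, 2.5 mM GSH, 0.002% Tween-20, heated at 1° C./min. Compounds in 1:2 series from a 10 mM DMSO stock; KD estimated from ΔTm using protein unfolding thermodynamics.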

Chain of full-length human RORγt (P51449 other isoform, or with tags, fused parts or gaps): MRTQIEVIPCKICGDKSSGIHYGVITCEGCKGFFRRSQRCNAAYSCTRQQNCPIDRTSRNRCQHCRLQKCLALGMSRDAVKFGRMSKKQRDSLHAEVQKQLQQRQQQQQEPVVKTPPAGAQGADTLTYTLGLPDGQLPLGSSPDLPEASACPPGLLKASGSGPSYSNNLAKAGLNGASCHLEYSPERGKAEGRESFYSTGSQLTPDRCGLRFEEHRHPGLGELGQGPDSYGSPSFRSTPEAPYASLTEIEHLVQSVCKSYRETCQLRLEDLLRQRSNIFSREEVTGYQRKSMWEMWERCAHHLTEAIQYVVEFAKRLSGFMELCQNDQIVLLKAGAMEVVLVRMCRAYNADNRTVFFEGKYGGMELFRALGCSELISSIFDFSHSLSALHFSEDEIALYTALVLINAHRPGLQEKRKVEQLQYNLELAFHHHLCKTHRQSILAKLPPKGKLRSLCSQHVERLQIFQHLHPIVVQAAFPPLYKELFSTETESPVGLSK
Chain of human RORγt ligand binding domain (RORγt LBD) (P51449 other isoform, or with tags, fused parts or gaps): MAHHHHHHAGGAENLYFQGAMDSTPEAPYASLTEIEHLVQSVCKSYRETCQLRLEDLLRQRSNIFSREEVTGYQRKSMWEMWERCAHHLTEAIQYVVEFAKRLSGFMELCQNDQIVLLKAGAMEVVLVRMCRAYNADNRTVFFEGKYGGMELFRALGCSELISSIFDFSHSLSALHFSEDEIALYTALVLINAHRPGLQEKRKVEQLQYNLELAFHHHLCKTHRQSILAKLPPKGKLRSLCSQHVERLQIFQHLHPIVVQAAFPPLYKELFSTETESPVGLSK

Work on `CCc1nc(C(=O)NC[C@]2(O)CC[C@@H](S(C)(=O)=O)CC2)c(Cl)n1-c1ccc(CC(C)C)cc1OC` (single isomer, unassigned) [Example 92, 5-Chloro-2-ethyl-N-(((1s,4S)-1-hydroxy-4-(methylsulfonyl)cyclohexyl)methyl)-1-((R*)-4-isobutyl-2-methoxyphenyl)-1H-imidazole-4-carboxamide] yielded an IC50 [1] of 7 nM, an inhibition at 6 µM [1] of 72% and a Kd [2] of 0.28 nM.
`CCc1nc(C(=O)NC[C@]2(O)CC[C@@H](S(C)(=O)=O)C[C@H]2O)c(Cl)n1-c1ncc(CC(C)(C)C(F)(F)F)cc1OC(F)F` (stereo in doubt) [Example 60, 5-Chloro-1-(3-(difluoromethoxy)-5-(3,3,3-trifluoro-2,2-dimethylpropyl)pyridin-2-yl)-N-(((1R*,2R*,4R*)-1,2-dihydroxy-4-(methylsulfonyl)cyclohexyl)methyl)-2-ethyl-1H-imidazole-4-carboxamide] was tested, and the inhibition at 3 µM [1] was 86%, the IC50 [1] was 190 nM and the Kd [2] was 34 nM.
Work on `CCc1nc(C(=O)NC[C@@]2(O)CC[C@H](S(C)(=O)=O)C[C@@H]2O)c(Cl)n1-c1ncc(CC(C)(C)C(F)(F)F)cc1OC(F)F` (stereo in doubt) [Example 61, 5-Chloro-1-(3-(difluoromethoxy)-5-(3,3,3-trifluoro-2,2-dimethylpropyl)pyridin-2-yl)-N-(((1S*,2S*,4S*)-1,2-dihydroxy-4-(methylsulfonyl)cyclohexyl)methyl)-2-ethyl-1H-imidazole-4-carboxamide] yielded an inhibition at 3 µM [1] of 90%, an IC50 [1] of 110 nM and a Kd [2] of 46 nM.
`CCc1nc(C(=O)NC[C@H]2CC[C@H](S(C)(=O)=O)C[C@@H]2O)c(Cl)n1-c1ncc(CC(C(F)(F)F)C(F)(F)F)cc1OC(F)F` (stereo in doubt) [Example 64, 5-Chloro-1-(3-(difluoromethoxy)-5-(3,3,3-trifluoro-2-(trifluoromethyl)propyl)pyridin-2-yl)-2-ethyl-N-(((1R*,2S*,4S*)-2-hydroxy-4-(methylsulfonyl)cyclohexyl)methyl)-H-imidazole-4-carboxamide] showed an inhibition at 3 µM [1] of 101%, an IC50 [1] of 210 nM and a Kd [2] of 35 nM.
`CCc1nc(C(=O)NC[C@@H]2CC[C@@H](S(C)(=O)=O)C[C@H]2O)c(Cl)n1-c1ncc(CC(C(F)(F)F)C(F)(F)F)cc1OC(F)F` (stereo in doubt) [Example 65, 5-Chloro-1-(3-(difluoromethoxy)-5-(3,3,3-trifluoro-2-(trifluoromethyl)propyl)pyridin-2-yl)-2-ethyl-N-(((1S*,2R*,4R*)-2-hydroxy-4-(methylsulfonyl)cyclohexyl)methyl)-1H-imidazole-4-carboxamide] was tested, and the inhibition at 3 µM [1] was 105%, the IC50 [1] was 110 nM and the Kd [2] was 28 nM.
`CCc1nc(C(=O)NC[C@@]2(O)CC[C@H](S(C)(=O)=O)C[C@@H]2O)c(Cl)n1-c1ncc(CC(C(F)(F)F)C(F)(F)F)cc1OC(F)F` (stereo in doubt) [Example 66, 5-Chloro-1-(3-(difluoromethoxy)-5-(3,3,3-trifluoro-2-(trifluoromethyl)propyl)pyridin-2-yl)-N-(((1S*,2S*,4S*)-1,2-dihydroxy-4-(methylsulfonyl)cyclohexyl)methyl)-2-ethyl-1H-imidazole-4-carboxamide] showed an inhibition at 3 µM [1] of 70%, an IC50 [1] of 790 nM and a Kd [2] of 73 nM.
With `CCc1nc(C(=O)NC[C@]2(O)CC[C@@H](S(C)(=O)=O)C[C@H]2O)c(Cl)n1-c1ncc(CC(C(F)(F)F)C(F)(F)F)cc1OC(F)F` (stereo in doubt) [Example 67, 5-Chloro-1-(3-(difluoromethoxy)-5-(3,3,3-trifluoro-2-(trifluoromethyl)propyl)pyridin-2-yl)-N-(((1R*,2R*,4R*)-1,2-dihydroxy-4-(methylsulfonyl)cyclohexyl)methyl)-2-ethyl-1H-imidazole-4-carboxamide] the inhibition at 3 µM [1] was 103%, the IC50 [1] was 170 nM and the Kd [2] was 53 nM.
`CCc1nc(C(=O)NC[C@]2(O)CC[C@@H](S(C)(=O)=O)CC2)c(C#N)n1-c1ccc(CC(C)C(F)(F)F)cc1OC` (stereo partly drawn) [Example 1, 5-Cyano-2-ethyl-N-(((1s,4s)-1-hydroxy-4-(methylsulfonyl)cyclohexyl)methyl)-1-(2-methoxy-4-(3,3,3-trifluoro-2-methylpropyl)phenyl)-1H-imidazole-4-carboxamide] gave an inhibition at 2 µM [1] of 103%, an IC50 [1] of 40 nM and a Kd [2] of 4.6 nM.
`CCc1nc(C(=O)NC[C@H]2CC[C@@H](S(C)(=O)=O)CC2)c(Cl)n1-c1ccc(N[C@H](C)C(F)(F)F)cc1OC` [Example 4, 5-Chloro-2-ethyl-1-(2-methoxy-4-(((R)-1,1,1-trifluoropropan-2-yl)amino)phenyl)-N-(((1s,4S)-4-(methylsulfonyl)cyclohexyl)methyl)-1H-imidazole-4-carboxamide] gave an inhibition at 2 µM [1] of 87%, an IC50 [1] of 350 nM and a Kd [2] of 470 nM.
In the case of `COc1cc(N[C@H](C)C(F)(F)F)ccc1-n1c(CC(C)C)nc(C(=O)NC[C@H]2CC[C@H](S(C)(=O)=O)CC2)c1Cl` [Example 9, 5-Chloro-2-isobutyl-1-(2-methoxy-4-(((R)-1,1,1-trifluoropropan-2-yl)amino)phenyl)-N-(((1r,4R)-4-(methylsulfonyl)cyclohexyl)methyl)-1H-imidazole-4-carboxamide], the IC50 [1] is reported as 35 nM, the inhibition at 6 µM [1] is reported as 101% and the Kd [2] is reported as 2.6 nM.
`COc1cc(N[C@H](C)C(F)(F)F)ccc1-n1c(C(C)(C)C)nc(C(=O)NC[C@H]2CC[C@H](S(C)(=O)=O)CC2)c1Cl` [Example 10, 2-(tert-Butyl)-5-chloro-1-(2-methoxy-4-(((R)-1,1,1-trifluoropropan-2-yl)amino)phenyl)-N-(((1r,4R)-4-(methylsulfonyl)cyclohexyl)methyl)-1H-imidazole-4-carboxamide] showed an inhibition at 2 µM [1] of 104%, an IC50 [1] of 57 nM and a Kd [2] of 6.1 nM.
Molecule `CCCc1nc(C(=O)NC[C@H]2CC[C@H](S(C)(=O)=O)CC2)c(Cl)n1-c1ccc(N[C@H](C)C(F)(F)F)cc1OC` [Example 11, 5-Chloro-1-(2-methoxy-4-(((R)-1,1,1-trifluoropropan-2-yl)amino)phenyl)-N-(((1r,4R)-4-(methylsulfonyl)cyclohexyl)methyl)-2-propyl-1H-imidazole-4-carboxamide] has an IC50 [1] of 39 nM, an inhibition at 6 µM [1] of 102% and a Kd [2] of 1 nM.
`CCc1nc(C(=O)NC[C@H]2CC[C@H](S(C)(=O)=O)CC2)c(F)n1-c1ccc(CCC(F)(F)F)cc1OC` [Example 13, 2-Ethyl-5-fluoro-1-(2-methoxy-4-(3,3,3-trifluoropropyl)phenyl)-N-(((1r,4r)-4-(methylsulfonyl)cyclohexyl)methyl)-1H-imidazole-4-carboxamide] gave an IC50 [1] of 140 nM, an inhibition at 6 µM [1] of 95% and a Kd [2] of 25 nM.
With `CCc1nc(C(=O)NC[C@]2(O)CC[C@@H](S(C)(=O)=O)CC2)c(F)n1-c1ccc(CCC(F)(F)F)cc1OC` [Example 14, 2-Ethyl-5-fluoro-N-(((1s,4s)-1-hydroxy-4-(methylsulfonyl)cyclohexyl)methyl)-1-(2-methoxy-4-(3,3,3-trifluoropropyl)phenyl)-1H-imidazole-4-carboxamide] the IC50 [1] was 320 nM, the inhibition at 6 µM [1] was 83% and the Kd [2] was 83 nM.
With `CCc1nc(C(=O)NC[C@H]2CC[C@H](S(C)(=O)=O)CC2)c(F)n1-c1ccc(CC(C)C(F)(F)F)cc1OC` (stereo partly drawn) [Example 15, 2-Ethyl-5-fluoro-1-(2-methoxy-4-(3,3,3-trifluoro-2-methylpropyl)phenyl)-N-(((1r,4r)-4-(methylsulfonyl)cyclohexyl)methyl)-1H-imidazole-4-carboxamide] the IC50 [1] was 55 nM, the inhibition at 6 µM [1] was 103% and the Kd [2] was 3.9 nM.
In the case of `CCc1nc(C(=O)NC[C@H]2CC[C@H](S(C)(=O)=O)CC2)c(C#N)n1-c1ccc(CC(C)C(F)(F)F)cc1OC` (stereo partly drawn) [Example 16, 5-Cyano-2-ethyl-1-(2-methoxy-4-(3,3,3-trifluoro-2-methylpropyl)phenyl)-N-(((1r,4r)-4-(methylsulfonyl)cyclohexyl)methyl)-1H-imidazole-4-carboxamide], the inhibition at 2 µM [1] is reported as 103%, the IC50 [1] is reported as 16 nM and the Kd [2] is reported as 1.3 nM.
Molecule `CCc1nc(C(=O)NC[C@H]2CC[C@H](S(C)(=O)=O)CC2)c(C#N)n1-c1ccc(CCC(F)(F)F)cc1OC` [Example 21, 5-Cyano-2-ethyl-1-(2-methoxy-4-(3,3,3-trifluoropropyl)phenyl)-N-(((1r,4r)-4-(methylsulfonyl)cyclohexyl)methyl)-1H-imidazole-4-carboxamide] has an IC50 [1] of 94 nM, an inhibition at 6 µM [1] of 101% and a Kd [2] of 14 nM.
Molecule `CCc1nc(C(=O)NC[C@]2(O)CC[C@@H](S(C)(=O)=O)CC2)c(Cl)n1-c1ccc(CCC(F)(F)F)cc1F` [Example 23, 5-Chloro-2-ethyl-1-(2-fluoro-4-(3,3,3-trifluoropropyl)phenyl)-N-(((1s,4s)-1-hydroxy-4-(methylsulfonyl)cyclohexyl)methyl)-1H-imidazole-4-carboxamide] has an IC50 [1] of 37 nM, an inhibition at 6 µM [1] of 41% and a Kd [2] of 49 nM.
Work on `CCc1nc(C(=O)NC[C@]2(O)CC[C@@H](S(C)(=O)=O)CC2)c(C#N)n1-c1ccc(CC(C)(C)C(F)(F)F)cc1OC(F)F` [Example 24, 5-Cyano-1-(2-(difluoromethoxy)-4-(3,3,3-trifluoro-2,2-dimethylpropyl)phenyl)-2-ethyl-N-(((1s,4s)-1-hydroxy-4-(methylsulfonyl)cyclohexyl)methyl)-1H-imidazole-4-carboxamide] yielded an IC50 [1] of 33 nM, an inhibition at 6 µM [1] of 104% and a Kd [2] of 5.3 nM.
